Activity calls are given as the source filed them. The calls are words filed in the database; no cut-off is given here.
Experiments:
[1] = system: Human immunodeficiency virus 1; experiment: Antiviral activity against HIV1 infected in fasted human assessed as viral load decay rate as viral log10 RNA copies/ml/day at 600 mg, po BID for 7 days as four modified-release capsules followed by a single dose on day 8 measured per day for 9 days; assay type: functional
[2] = Drug concentration at steady state in fasted human plasma at 400 mg, po every 12 hrs measured on day 8; assay type: ADME, organism-based; conditions: read-out: Drug uptake
[3] = Half life in fasted human at 400 mg, po every 24 hrs measured on day 8; assay type: ADME, organism-based; conditions: in vivo
[4] = system: Human immunodeficiency virus 1; experiment: Antiviral activity against HIV1 infected in human assessed as log reduction in HIV-1 RNA level at 800 mg, po administered every day; assay type: functional
[5] = system: Human immunodeficiency virus 1; experiment: Antiviral activity against HIV1 infected in fasted human assessed as decrease in plasma viral log10 RNA copies/ml at 1000 mg, po […] followed by a single dose on day 8 measured on day 9 relative to pooled placebo control; assay type: functional
[6] = Renal clearance in dog; assay type: ADME, organism-based, Canis lupus familiaris, Kidney; conditions: in vivo, read-out: CL_renal
[7] = Cmax in fasted human plasma at 600 mg, po every 24 hrs measured on day 8; assay type: ADME, organism-based; design: dose 600 mg, route oral
[8] = system: Human immunodeficiency virus 1; experiment: Antiviral activity against HIV1 infected in human assessed as change in CD8 expressing T-cell count from baseline at 600 mg, po BID for 7 days as four modified-release capsules followed by a single dose on day 8 measured on day 9 relative to pooled placebo control; assay type: functional
[9] = Cmax in human plasma at 500 mg administered as multiple doses, BID; assay type: ADME, organism-based; design: dose 500 mg
[10] = Drug concentration at steady state in fasted human plasma at 800 mg, po every 24 hrs measured on day 8; assay type: ADME, organism-based; conditions: read-out: Drug uptake
[11] = Drug excretion in human urine; assay type: ADME; conditions: read-out: Activity
Homo sapiens [12] = species on record: Homo sapiens; experiment: Cardiotoxicity in healthy human assessed as changes in electrocardiographic QTc interval; assay type: toxicity, organism-based; conditions: in vivo
[13] = Plasma protein binding in rat; assay type: ADME, cell-free; conditions: read-out: PPB
[14] = Half life in fasted human at 600 mg, po every 24 hrs measured on day 8; assay type: ADME, organism-based; conditions: in vivo
[15] = Cmax in fasted human plasma at 400 mg, po every 12 hrs measured on day 8; assay type: ADME, organism-based; design: dose 400 mg, route oral
[16] = Tmax in fasted human plasma at 50 to 300 mg; assay type: ADME, organism-based
[17] = system: Human immunodeficiency virus 1; experiment: Antiviral activity against HIV1 infected in human assessed as change in CD8 expressing T-cell count from baseline at 800 mg, po administered every day as four enteric-coated tablets followed by a single dose on day 8 measured on day 9 relative to pooled placebo control; assay type: functional
[18] = system: Human immunodeficiency virus 1; experiment: Antiviral activity against HIV1 infected in fasted human assessed as decrease in plasma viral log10 RNA copies/ml at 800 mg, po […] followed by a single dose on day 8 measured on day 9 relative to pooled placebo control; assay type: functional
[19] = Drug concentration at steady state in fasted human plasma 600 mg, po every 24 hrs measured on day 8; assay type: ADME, organism-based; conditions: read-out: Drug uptake
[20] = Terminal half life […] at 300 to 500 mg; assay type: ADME
[21] = AUC (0 to 12 hrs) in human plasma at 500 mg administered as multiple doses, BID; assay type: ADME, organism-based; design: dose 500 mg, time < 12 hr
[22] = Cmax in human plasma at 300 mg administered as multiple doses, BID; assay type: ADME, organism-based; design: dose 300 mg
[23] = AUC (24 hrs) in fasted human at 400 mg, po every 24 hrs measured on day 8; assay type: ADME, organism-based; design: time < 24 hr, dose 400 mg, route oral; conditions: plasma
[24] = Tmax in fasted human plasma at 600 mg; assay type: ADME, organism-based
[25] = Plasma protein binding in rhesus monkey; assay type: ADME, cell-free, Macaca mulatta; conditions: read-out: PPB
[26] = system: Human immunodeficiency virus 1; experiment: Antiviral activity against HIV1 infected in human assessed as change in CD8 expressing T-cell count from baseline at 400 mg, po BID for 7 days as four modified-release capsules followed by a single dose on day 8 measured on day 9 relative to pooled placebo control; assay type: functional
[27] = Drug concentration at steady state in fasted human plasma at 1000 mg, po every 24 hrs measured on day 8; assay type: ADME, organism-based; conditions: read-out: Drug uptake
[28] = system: Human immunodeficiency virus 1; experiment: Antiviral activity against HIV1 infected in fasted human assessed as as viral load decay rate as viral log10 RNA copies/ml/day at 1000 mg, po administered every day as five enteric-coated tablets followed by a single dose on day 8 measured on day 9; assay type: functional
Homo sapiens [29] = species on record: Homo sapiens; experiment: Reduction in uric acid level in human plasma; assay type: functional, organism-based
[30] = Tmax in fasted human at 800 mg, po every 24 hrs measured on day 8; assay type: ADME, organism-based; conditions: in vivo
[31] = Plasma protein binding in human; assay type: ADME, cell-free; conditions: read-out: PPB
[32] = Renal clearance in human; assay type: ADME, organism-based, Kidney; conditions: in vivo, read-out: CL_renal

O=C(CSc1nnc(Br)n1-c1ccc(C2CC2)c2ccccc12)Nc1ccc(C(=O)O)cc1Cl
Activity [1]: -0.18 mL⁻¹ | concentration at 12 h [2]: 505 ng/mL | half-life [3]: 11.3 h | Activity [4]: 0.5 mL⁻¹ | Activity [5]: -1.8189 mL⁻¹ | CL renal [6]: ≤ 1 mL/min | Cmax [7]: 2420 ng/mL | Activity [8]: 64.54 /mm3 | Cmax [9]: 746 ng/mL | concentration at 24 h [10]: 310 ng/mL | dose excreted [11]: < 0.06% | Activity (Homo sapiens [12]): Non-toxic | fraction unbound [13]: < 0.01 | half-life [14]: 7.09 h | Cmax [15]: 2990 ng/mL | Tmax [16]: 1.25 h | Activity [17]: 79.41 /mm3 | Activity [18]: -1.7426 mL⁻¹ | concentration at 24 h [19]: 276 ng/mL | half-life [20]: 10.4 h | AUC at 12 h [21]: 3770 ng·h/mL | Cmax [22]: 667 ng/mL | AUC at 24 h [23]: 12400 ng·h/mL | Tmax [24]: 4.92 h | fraction unbound [25]: < 0.01 | Activity [26]: -39.17 /mm3 | concentration at 24 h [27]: 515 ng/mL | Activity [28]: -0.22 mL⁻¹ | Activity (Homo sapiens [29]): Active | Tmax [30]: 3 h | fraction unbound [31]: < 0.01 | CL renal [32]: ≤ 1 mL/min
